From PubChem BioAssay (NCI) come the findings set out here.

Common to all, as to assay: NCI-60 cell line screen, 48 h
Assay [1] has as its system PC-3 prostate.
Assay [2] relates to HOP-62 NSCLC.
Assay [3] deals with NCI-H226 lung.
Assay [4] has as its system OVCAR-3 ovarian.
In assay [5] the test system is HCT-116 colon.
In assay [6] the test system is SNB-75 CNS.
The test system of assay [7] is HL-60(TB) leukemia.
Assay [8] concerns SNB-19 CNS.
Assay [9] concerns OVCAR-8 ovarian.
Assay [10] has as its system OVCAR-4 ovarian.
The subject of assay [11] is NCI/ADR-RES ovarian.
Assay [12] has as its system NCI-H460 lung.
Assay [13] deals with SK-MEL-2 melanoma.

Values joined by “and” are separate entries in the source; they are usually repeats but may differ in a detail not shown here. Equal values may be shown once.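 48-hour exposure; five concentrations; linearly interpolated endpoints. At the GI50, growth is halved. TGI: total growth inhibition.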 Where a SMILES comes first, the peptide text is derived from it. The star is where a group is joined. Boc = CC(C)(C)OC(=O)*; Bn = c1ccc(C*)cc1 Where only a bound is given, the exact number is not on record here.

As for `CCCCC1(O)CC2CC1C(C)C2(C)C` (stereo unspecified), the TGI in assay [1], in [2], in assay [3], in assay [4], in assay [5] and in [6] was greater than 100 µM throughout. The TGI in assay [7] was 64.6 µM; in [8] it was greater than 100 µM; in assay [9] it was greater than 100 µM; in assay [10] it was greater than 100 µM; in assay [11], greater than 100 µM.

`O=C1C=C(c2ccccc2)O/C1=C\C(=O)c1ccc(Cl)cc1`: the TGI in assay [1] was 30.3 µM; in assay [12], greater than 100 µM; in assay [2] it was greater than 100 µM; in assay [3], 44.5 µM; in assay [4], 47.1 µM; in assay [5], 31.2 µM. Further, the TGI is 18.2 µM in assay [6]; greater than 100 µM in assay [8]; 83.4 µM in assay [9]; 58.2 µM in assay [10]; 52.4 µM in [11].

With `CN1CCN(Cc2nc3c(s2)CCc2sccc2-3)CC1`, the TGI in assay [1], in assay [12], in assay [2], in assay [3], in assay [13] and in [4] was greater than 100 µM each time. Besides, the TGI in [5], in [6], in [8], in assay [9], in assay [10] and in assay [11] was greater than 100 µM each time.

Turning to `COC(=O)Cn1c(=O)oc2nc(-c3ccccc3)cc(C(F)(F)F)c21`, the TGI in [1], in assay [12], in [2], in assay [3], in assay [13] and in [4] was greater than 100 µM in each case. Besides, the TGI in assay [5], in assay [6], in [8], in assay [9], in assay [10] and in assay [11] was greater than 100 µM each time.

As to `CC(=O)Oc1ccc2cc(-c3ccc(OC(C)=O)c(OC(C)=O)c3)c(=O)oc2c1`, the TGI in assay [1], in [12], in [2], in [3], in assay [13] and in assay [4] was greater than 100 µM in each case. The TGI in assay [5], in [7], in assay [8], in assay [9], in [10] and in [11] was greater than 100 µM each time.

`O=c1[nH]c(=O)n(CCOc2ccc(Cl)cc2)cc1Nc1ccccc1`: the TGI in assay [1], in assay [12], in [2], in assay [4], in assay [5] and in assay [7] was greater than 100 µM throughout. Besides, the TGI in assay [8], in [10] and in assay [11] was greater than 100 µM throughout.

Turning to `CCNc1nnc(-c2ccccc2Nc2ccccc2-c2nnc(NCC)s2)s1`, the TGI was greater than 69.4 µM in [1]; 31.3 µM in assay [12]; greater than 100 µM in [2]; 77.2 µM in assay [3]; 31 µM in assay [13]; greater than 100 µM in assay [4]. Further, the TGI in assay [5] was greater than 56 µM; in assay [6] it was greater than 87.9 µM; in assay [8], greater than 100 µM; in [9], greater than 83.9 µM; in assay [10], greater than 100 µM; in assay [11], greater than 100 µM.

As to `CCC1CCC2c3c([nH]c4ccc(C)cc34)C3C(=O)N(N(C)C)C(=O)C3C2C1` (stereo unspecified), the TGI in assay [1] was greater than 100 µM; in [12], greater than 68 µM; in assay [2] it was greater than 100 µM; in assay [3], greater than 100 µM; in [13], greater than 100 µM; in assay [4], 2.98 µM. Moreover, the TGI in assay [5] is 52.9 µM; in assay [7], greater than 46.8 µM; in assay [8] it was greater than 100 µM; in assay [9], greater than 100 µM; in assay [10], greater than 100 µM; in assay [11], greater than 53.5 µM.

With `C/C=C\C(CC(=O)OC)CC(=O)N(CCC1CN(S(=O)(=O)C(F)(F)F)c2ccccc21)Cc1ccc(OC)cc1OC` (stereo unspecified), the TGI in [1], in assay [12], in assay [2], in assay [3], in assay [13] and in [4] was greater than 100 µM in each case. Besides, the TGI in assay [5], in [6], in assay [8], in assay [10] and in assay [11] was greater than 100 µM in each case.

As to `NC(=O)CCC(NC(=O)c1c2ccccc2nc2ccccc12)C(=O)O` (stereo unspecified), the TGI in assay [1], in assay [12], in assay [2], in assay [3], in assay [13] and in assay [4] was greater than 100 µM each time. Also, the TGI in assay [5], in assay [6], in assay [8], in [9], in assay [10] and in [11] was greater than 100 µM in each case.

Take `CC(C)(C)[Si](C)(C)OCC1OC(n2ccc(=O)[nH]c2=O)C(O[Si](C)(C)C(C)(C)C)[C@]12O[C@@H]2CO` (stereo partly specified): the TGI was 16.8 µM in assay [1]; 35.1 µM in assay [12]; 30.2 µM in assay [2]; 30.7 µM in [3]; 28.6 µM in assay [13]; 28.4 µM in assay [4]. For the same molecule, the TGI in assay [5] is 39 µM; in assay [6], 40.4 µM; in assay [8], 24 µM; in assay [9] it was greater than 100 µM; in [10], 47.4 µM; in assay [11] it was 44 µM.

Consider `S=C1CC(c2ccccc2)Sc2cc(Cl)ccc2N1` (stereo unspecified), for which the TGI in assay [1] was greater than 100 µM; in assay [12], 22.8 µM; in [2], 18.4 µM; in assay [3], 32.7 µM; in assay [4], 8.49 µM; in [5], 17.2 µM. The TGI in [6] is 20.8 µM; in assay [8], 38.7 µM; in assay [9], 31.3 µM; in assay [10], 28 µM; in assay [11] it was 30.5 µM.

Turning to `Cc1cc(C)nc(NS(=O)(=O)c2ccc(NC(=O)NC(F)(F)F)cc2)n1`, the TGI in assay [1], in assay [13], in [5], in assay [6], in assay [7] and in assay [8] was greater than 100 µM in each case. The TGI in assay [9] and in [11] was greater than 100 µM in each case.

With `C[N+]12C=CC=C1C(N1CCCC1)c1scc(-c3ccc(F)cc3)c12` (stereo unspecified), the TGI was greater than 100 µM in assay [1]; greater than 100 µM in assay [2]; greater than 100 µM in assay [3]; 49 µM in [13]; greater than 100 µM in assay [4]; greater than 100 µM in [5]. The TGI in [6], in [8], in assay [9] and in [11] was greater than 100 µM each time.

As for `CC1=CC(=O)N(n2c(Cc3ccc(Cl)cc3)n[nH]c2=O)C1=O`, the TGI in [1], in [12], in [3], in [13], in [4] and in assay [5] was greater than 100 µM in each case. Moreover, the TGI in assay [8], in [9], in [10] and in [11] was greater than 100 µM in each case.

As to `COC(=O)[C@]12CSC[C@H]1C[C@H](c1cccc3ccccc13)N2`, the TGI in [1], in assay [12], in assay [2], in assay [3], in assay [13] and in assay [4] was greater than 100 µM in each case. The TGI in assay [5], in [6], in assay [8], in assay [9] and in assay [11] was greater than 100 µM in each case.

As for `CCOC(=O)C(NC(=O)CC)(Nc1ccc(F)cc1F)C(F)(F)F` (stereo unspecified), the TGI in assay [1], in assay [13], in assay [5], in [6], in [7] and in [8] was greater than 100 µM each time. In addition, the TGI in assay [9] and in assay [11] was greater than 100 µM in each case.

As for `CNC(=O)C(CC(C)C)NC(=O)C(C)NC(=O)C(Cc1ccc(OCc2ccccc2)cc1)NC(=O)C(COCc1ccccc1)NC(=O)OC(C)(C)C` (stereo unspecified) (Boc-S(Bn)Y(Bn)AL-NHMe; configuration not given here), the GI50 was 19.2 µM and 2.53 µM in assay [1]; > 41 µM and 18.3 µM in assay [12]; 44.3 µM and 15.2 µM in [3]; 42.1 µM and 19.1 µM in assay [4]; 18.9 µM and 9 µM in assay [6]; 9.51 µM and 3.9 µM in assay [7]. For the same molecule, the TGI is 58.4 µM and 18.6 µM in [1]; > 61.4 µM and 42.6 µM in assay [12]; > 53.2 µM and 38.1 µM in assay [2]; > 68.5 µM and 39 µM in assay [3]; > 100 µM and 44 µM in assay [4]; 20.1 µM and 20.5 µM in assay [5]. Further, the TGI in assay [6] is > 31.6 µM and 22.9 µM; in assay [7], 30.2 µM and > 100 µM; in [8] it was > 58 µM and 36.9 µM; in assay [9], 35 µM and 48.5 µM; in [10] it was 41.2 µM and 45.4 µM; in assay [11], greater than 100 µM.

For the molecule `O=S(=O)(CCC[C@H]1[C@@H](CCOCc2ccccc2)C2CCCN1O2)c1ccccc1` (stereo partly specified), the TGI in assay [1], in assay [12], in [2], in [3], in assay [4] and in assay [5] was greater than 100 µM throughout. Besides, the TGI in assay [6], in assay [8], in assay [9], in assay [10] and in assay [11] was greater than 100 µM each time.

Take `Cc1ccccc1Nc1nc(NNC(=O)Cc2ccccc2)nc(NNC(=O)c2ccncc2)n1`: the TGI in [12], in assay [2], in assay [6], in assay [7], in assay [9] and in assay [10] was greater than 10 µM each time. This molecule also returned a TGI in [11] greater than 10 µM.

In the case of `CCOC(=O)C1(N)CC1`, the TGI in [1], in assay [12], in assay [2], in assay [3], in assay [4] and in assay [5] was greater than 100 µM each time. Also, the TGI in assay [6], in assay [7], in assay [8], in assay [9], in assay [10] and in [11] was greater than 100 µM in each case.

For `CCOC(=O)N/N=C(\CC)OCC`, the TGI in assay [1], in assay [12], in assay [2], in assay [13], in assay [4] and in assay [5] was greater than 100 µM each time. Besides, the TGI in [6], in assay [7], in [8], in assay [9] and in assay [11] was greater than 100 µM throughout.

Regarding `Cc1ccc(C(=O)N/N=C(\N=Nc2ccccc2Cl)c2ccc(N(C)C)cc2)cc1`, the TGI in [1], in assay [12], in assay [3], in [13], in assay [4] and in assay [5] was greater than 100 µM throughout. Moreover, the TGI was greater than 100 µM in [7]; 84.5 µM in [8]; greater than 100 µM in assay [9]; 78.4 µM in assay [10]; greater than 100 µM in assay [11].

Take `CC(=O)n1[nH]c(=O)n(-c2ccccc2)c1=O`: the TGI in assay [1], in assay [12], in assay [2], in assay [3], in assay [13] and in assay [4] was greater than 100 µM in each case. Moreover, the TGI in assay [5], in assay [7], in [8], in [9], in assay [10] and in [11] was greater than 100 µM throughout.
